From patent publication US7091351B2, “Vanadium compounds for treating cancer” (Parker Hughes Institute, priority 1998, dated 2006)

How the values were obtained:
Assay type in all cases: cell-based, human
[1] = tested on: Tera-2 testicular cancer cells; assay: Cytotoxic activity of oxovanadium(IV) compounds, TERA-2; conditions: read-out: Cytotoxic Activity TERA-2
Protocol: (§1) The cytotoxicity of oxovanadium (W) complexes listed in Table 6 were tested against 9 different human cancer cell lines was performed using the MTT (3-[4,5-dimethylthiazol-2-yl]-2,5-diphenyl tetrazolium bromide) assay (Boehringer Mannheim Corp., Indianapolis, Ind.) as described previously (20). Briefly, exponentially growing tumor cells were seeded into a 96-well plate at a density of 4×10^4cells/well and incubated with medium containing the oxovanadium(IV) compounds concentrations ranging from 0.1 to 250 μM for 48 hours at 37° C. in a humidified 5% CO2 atmosphere. Triplicate wells were used for each treatment. To each well, 10 μl of MTT (0.5 mg/ml final concentration) was added and the plates were incubated at 37° C. for 4 hours to allow MTT to form formazan crystals by reacting with metabolically active cells . The formazan crystals were solubilized overnight at 37° C. in a solution containing 10% SDS in 0.01 M HCl. The absorbence of each well was measured in a microplate reader (Labsystems) at 540 nm and a reference wavelength of 690 nm. To translate the OD540 values into the number of live cells in each well, the OD540 values were compared to those on standard OD540—versus—cell number curves generated for each cell line. The percent survival was calculated using the formula: % survival=Live cell number[test]/Live cell number [control]×100. The IC50 values were calculated by non-linear regression analysis using an Graphpad Prism software version 2.0 (Graphpad Software, Inc., San Diego, Calif.).

[2] = tested on: MOLT-3 cells; assay: MTT cytotoxicity assay of oxovanadium(IV) compounds, MOLT-3; conditions: 48 hr
Protocol: as §1

[3] = tested on: HL-60 cells; assay: MTT cytotoxicity assay of oxovanadium(IV) compounds, HL-60; conditions: 48 hr
Protocol: as §1

[4] = tested on: Tera-2 testicular cancer cells; assay: Flow cytometric TUNEL apoptosis assay, TERA-2 cells; conditions: 24 h, TUNEL-positive nuclei
Protocol: A flow cytometric two-color terminal […] transferase (TdT)-mediated digoxigenin-uridine triphosphate (dUTP) nick-end labeling assay (TUNEL) was employed to detect apoptotic nuclei. Gavrieli, Y., Sherman, Y., Ben-Sasson, S. A. Identification of programmed cell death in situ via specific labeling of nuclear DNA fragmentation. J. Cell Biol., 119: 493–501, 1992. Exponentially growing cells (10^6/ml) were incubated in DMSO alone (0.1%) or treated with 100 μM each of the 16 vanadocenes (VDB, VDC, VMDC, VDI, VDA, VDCN, VDOCN, VDSCN, VDSeCN, VDT, VDCO, VDFe, VD(acac), VDH, VD(dpy), and VD(dtc) in 0.1% DMSO for 24 h. Cells were washed in PBS, fixed in 4% paraformaldehyde in PBS for 15 min on ice. Following two washings in PBS, they were permeabilized with 0.1% Triton X-100 in 0.1% sodium citrate for 2 min on ice, and washed twice in PBS. Labeling of exposed 3′-hydroxyl (3′-OH) ends of fragmented nuclear DNA was performed using TdT and fluorescein isothiocyanate (FITC)-conjugated dUTP according to the manufacturer's recommendations (Boehringer Mannheim, Indianapolis, Ind.). Cells were counterstained with 5 μg/ml PI. Control samples included: (i) untreated cells; (ii) cells incubated with the reaction mixture without the TdT enzyme. Cells were analyzed with a FACS Calibur flow cytometer (Becton Dickinson, Mountain View, Calif.). Relative DNA content (PI) was detected with band-pass filter 585/42, and dUTP incorporation (FITC) was detected with band-pass filter 530/30. Fluorescence was compensated for in the acquisition software using single-label control samples. Data were acquired in listmode, gated to 10,000 events per sample, and analyzed with the use of CELLQuest software program (Becton Dickinson). […] Vanadocene-induced apoptosis is shown by an increase in the number of cells staining with FITC-dUTP. The M1 and M2 gates were used to demarcate non-apoptotic and apoptotic PI-counterstained cell populations, respectively. TUNEL assays were performed using two testicular cell lines Tera-2 and Ntera-2 following exposure to each of the 16 vanadocenes. In other experiments, MC540 binding (as an early marker of apoptosis) and PI permeability (as a marker of advanced stage apoptosis) were simultaneously measured in human cancer cells 24 hours after exposure to vanadocenes, as previously described. Uckun, F. M., Narla, R. K., Jun, X., Zeren, T., Venkatachalam, T., Waddick, K. G., Rostostev, A., Myers, D. E. Cytotoxic activity of EGF-genstein against breast cancer cells. Clin. Cancer Res. 4:901–912, 1998. Vassilev, A., Ozer, Z., Navara, C., Mahajan, S., and Uckun, F. M. Bruton's tyrosine kinase as an inhibitor of the Fas/CD95 death-inducing signaling complex. J. Biol. Chem. 274:1646–56, 1999. Whole cells were analyzed using a FACStar Plus flow cytometer (Becton Dickinson, San Jose, Calif.). All analyses were done using 488 nm excitation from an argon laser. MC540 and PI emissions were split with a 600 nm short pass dichroic mirror and a 575 nm band pass filter was placed in front of one photomultiplier tube to measure MC540 emission and a 635 nm band pass filter was used for PI emission.

Compound	IC50 [1]	IC50 [2]	IC50 [3]	% Apoptosis at 100 μM TERA-2 [4]
bis(4,7-dimethyl-1,10-phenanthroline)sulfatooxovanadium(IV) [Compound 29]	19.5 µM	190 ± 10 nM	980 ± 100 nM	
[Cl-].[Cl-].[V+4].c1cc[cH-]c1.c1cc[cH-]c1 [VDC, VCp2Cl2]				88 (87, 89) %
